Source: US20200316023A1, “Method Of Producing Bacterially Derived Indole-3-Propionic Acid And Compositions Comprising Same” (The Procter & Gamble Company, priority 2019, published 2020)

Test: pharmacokinetic studies of IPA dose versus serum IPA levels
Format: in vivo
Conditions: dose of from about 5 to about 10 mg of IPA
Method: In some aspects, the composition can comprise from about 5 to about 10 mg of IPA per dose of the composition.

O=C(O)CCc1c[nH]c2ccccc12 [IPA, Indole-3-propionic acid]
IPA levels in serum relative to endogenous baseline: increase IPA levels in serum beyond endogenous baseline values
